Measured values published in ChEMBL document CHEMBL1149399, “Dual inhibitors of thymidylate synthase and dihydrofolate reductase as antitumor agents: design, synthesis, and biological evaluation of classical and nonclassical pyrrolo[2,3-d]pyrimidine antifolates(1)” (J Med Chem, 2006).

Key:
[1] = target: T1, Thymidylate synthase (Homo sapiens, UniProt P04818)
Target sequence in this assay (P04818 whole entry): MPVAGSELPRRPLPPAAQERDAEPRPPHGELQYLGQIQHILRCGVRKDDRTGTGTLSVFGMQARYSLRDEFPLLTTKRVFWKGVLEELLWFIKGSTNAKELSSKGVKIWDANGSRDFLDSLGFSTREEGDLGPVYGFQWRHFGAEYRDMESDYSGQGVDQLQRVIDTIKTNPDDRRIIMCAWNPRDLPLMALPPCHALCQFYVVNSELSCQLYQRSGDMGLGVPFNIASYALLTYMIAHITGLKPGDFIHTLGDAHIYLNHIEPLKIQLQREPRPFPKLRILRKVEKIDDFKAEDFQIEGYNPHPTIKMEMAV

[2] = tested on: R1-CCRF-CEM; assay: Inhibition of growth in MTX-resistant CCRF-CEM cell line, R1 cells; type: functional, cell-based; settings: Homo sapiens
[3] = tested on: CCRF-CEM; assay: Protection against growth of CCRF-CEM cells in presence of 10 uM Hypoxanthine, relative to control; type: functional, Homo sapiens
[4] = tested on: CCRF-CEM; assay: Protection against growth of CCRF-CEM cells in presence of 5 uM Thymidine and 10 uM Deoxycytidine, relative to control; type: functional, Homo sapiens
[5] = tested on: CCRF-CEM; assay: Protection against growth of CCRF-CEM cells in presence of 10 uM Hypoxanthine and 10 uM Deoxycytidine, relative to control; type: functional, Homo sapiens
[6] = tested on: CCRF-CEM; assay: Protection against growth inhibition of CCRF-CEM cells in presence of 0.1 uM of Leucovorin at concentrations that inhibited the growth by […]%; type: functional, Homo sapiens; parameters: scale not given: the % may be the effect or the level left
[7] = tested on: CCRF-CEM; assay: Protection against growth of CCRF-CEM cells in presence of 5 uM Thymidine, relative to control; type: functional, Homo sapiens
[8] = tested on: CCRF-CEM; assay: Protection against growth of CCRF-CEM cells in presence of 5 uM Thymidine, 10 uM Deoxycytidine and 10 uM Hypoxanthine, relative to control; type: functional, Homo sapiens
[9] = tested on: CCRF-CEM; assay: Protection against growth of CCRF-CEM cells in presence of 10 uM Deoxycytidine, relative to control; type: functional, Homo sapiens
[10] = tested on: R2-CCRF-CEM; assay: Inhibition of growth in MTX-resistant CCRF-CEM cell line, R2 cells; type: functional, cell-based; settings: Homo sapiens
[11] = tested on: CCRF-CEM; assay: Inhibition of growth in MTX-resistant CCRF-CEM cell line, R30dm cells; type: functional, cell-based; settings: Homo sapiens
[12] = Inhibition of DHFR from Escherichia coli
[13] = tested on: CCRF-CEM; assay: Inhibition of growth in CCRF-CEM cells; type: functional, cell-based; settings: Homo sapiens
[14] = target: Thymidylate synthase (Escherichia coli) (UniProt C3SWJ7); assay: Inhibition of TS from Escherichia coli at >2.7*10-5 nM
[15] = target: T2, Dihydrofolate reductase (Homo sapiens) (UniProt P00374); assay: Inhibition of recombinant human DHFR at >32 uM
T2 sequence (whole entry): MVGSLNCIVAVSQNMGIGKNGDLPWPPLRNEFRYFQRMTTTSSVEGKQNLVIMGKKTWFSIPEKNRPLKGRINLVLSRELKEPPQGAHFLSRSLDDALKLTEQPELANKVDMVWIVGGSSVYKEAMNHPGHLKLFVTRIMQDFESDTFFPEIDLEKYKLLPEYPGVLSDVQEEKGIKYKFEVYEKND

[16] = target: Thymidylate synthase (Escherichia coli) (UniProt C3SWJ7); assay: Inhibition of TS from Escherichia coli at >2.6*10-5 nM
[17] = target: T2, Dihydrofolate reductase (Homo sapiens); assay: Inhibition of recombinant human DHFR at >31 uM
[18] = target: Thymidylate synthase (Escherichia coli) (UniProt C3SWJ7); assay: Inhibition of TS from Escherichia coli at >3.0*10-5 nM
[19] = target: T1, Thymidylate synthase; assay: Inhibition of recombinant human TS at >2.2*10-5 nM
Target sequence in this assay (P04818 2-313 limits assumed): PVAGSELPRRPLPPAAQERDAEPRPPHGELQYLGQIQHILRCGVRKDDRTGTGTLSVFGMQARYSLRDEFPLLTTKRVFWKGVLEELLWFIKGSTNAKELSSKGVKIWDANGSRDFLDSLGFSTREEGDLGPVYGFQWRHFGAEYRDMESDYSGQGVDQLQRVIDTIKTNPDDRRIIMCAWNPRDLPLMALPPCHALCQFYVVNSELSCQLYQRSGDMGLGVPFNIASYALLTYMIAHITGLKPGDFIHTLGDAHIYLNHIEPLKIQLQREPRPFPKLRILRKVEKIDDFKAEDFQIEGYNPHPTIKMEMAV

[20] = target: Thymidylate synthase (Escherichia coli) (UniProt C3SWJ7); assay: Inhibition of TS from Escherichia coli at >2.0*10-5 nM
[21] = target: Thymidylate synthase (Escherichia coli, UniProt C3SWJ7); assay: Inhibition of TS from Escherichia coli
[22] = target: T2, Dihydrofolate reductase (Homo sapiens); assay: Inhibition of recombinant human DHFR at >29 uM
[23] = tested on: CCRF-CEM; assay: Protection against growth inhibition of CCRF-CEM cells in presence of 10 uM of Leucovorin at concentrations that inhibited the growth by 95%; type: functional, Homo sapiens; parameters: scale not given: the % may be the effect or the level left
[24] = target: T3, Dihydrofolate reductase (Homo sapiens, UniProt P00374)
T3 sequence (P00374 whole entry): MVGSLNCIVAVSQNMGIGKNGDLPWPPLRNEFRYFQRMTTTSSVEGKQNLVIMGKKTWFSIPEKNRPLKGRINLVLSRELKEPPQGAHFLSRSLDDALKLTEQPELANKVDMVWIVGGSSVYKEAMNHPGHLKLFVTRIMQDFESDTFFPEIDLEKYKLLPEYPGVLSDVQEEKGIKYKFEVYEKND

[25] = target: Thymidylate synthase (Escherichia coli) (UniProt C3SWJ7); assay: Inhibition of TS from Escherichia coli at >3.2*10-5 nM
[26] = target: Thymidylate synthase (Escherichia coli) (UniProt C3SWJ7); assay: Inhibition of TS from Escherichia coli at >2.3*10-5 nM
[27] = target: Thymidylate synthase (Escherichia coli) (UniProt C3SWJ7); assay: Inhibition of TS from Escherichia coli at >3.1*10-5 nM
[28] = target: T1, Thymidylate synthase; assay: Inhibition of recombinant human TS at >3.1*10-5 nM
Target sequence in this assay (P04818 2-313 limits assumed): as the sequence (P04818 2-313 limits assumed) above

[29] = target: Thymidylate synthase (Escherichia coli) (UniProt C3SWJ7); assay: Inhibition of TS from Escherichia coli at >2.2*10-5 nM
[30] = target: T2, Dihydrofolate reductase (Homo sapiens); assay: Inhibition of recombinant human DHFR at >26 uM
[31] = target: T1, Thymidylate synthase; assay: Inhibition of recombinant human TS at >3.2*10-5 nM
Target sequence in this assay (P04818 2-313 limits assumed): as the sequence (P04818 2-313 limits assumed) above

[32] = substrate: CCc1[nH]c2nc(N)nc(O)c2c1Sc1ccc(C(=O)N[C@@H](CCC(=O)O)C(=O)O)cc1; assay: Binding with human cytosolic FPGS at <= 100 uM

Sequence of Thymidylate synthase (Escherichia coli) (C3SWJ7 1-264): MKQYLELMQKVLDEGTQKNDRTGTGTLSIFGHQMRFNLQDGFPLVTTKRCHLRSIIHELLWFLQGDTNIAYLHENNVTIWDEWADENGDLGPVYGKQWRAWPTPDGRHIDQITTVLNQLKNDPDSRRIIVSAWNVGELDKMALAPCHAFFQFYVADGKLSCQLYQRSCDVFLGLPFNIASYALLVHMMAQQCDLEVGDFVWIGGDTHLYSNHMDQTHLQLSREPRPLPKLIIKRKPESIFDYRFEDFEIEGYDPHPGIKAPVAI
Sequence of Thymidylate synthase (Escherichia coli, UniProt C3SWJ7) (C3SWJ7 whole entry): as the sequence (C3SWJ7 1-264) above

Work on `CCc1[nH]c2nc(N)[nH]c(=O)c2c1Sc1cccc2ccccc12` yielded an IC50 [1] of 5.6 µM.

Work on `CN(Cc1cnc2nc(N)nc(N)c2n1)c1ccc(C(=O)N[C@@H](CCC(=O)O)C(=O)O)cc1` [METHOTREXATE] yielded an EC50 [2] of 0.565 µM, an Activity [3] of 101% and an Activity [4] of 10%. For the same molecule, the Activity [5] was 11%, the Activity [6] was 10% and the Activity [7] was 44%. For the same molecule, the Activity [8] was 99%, the Activity [9] was 10% and the EC50 [10] was 1.7 µM.

In the case of `Cc1[nH]c2nc(N)[nH]c(=O)c2c1Sc1ccc(C(=O)N[C@@H](CCC(=O)O)C(=O)O)cc1`, the EC50 [11] is reported as 0.81 µM, the IC50 [12] is reported as 21 µM and the EC50 [13] is reported as 0.45 µM.

`CCc1[nH]c2nc(N)nc(O)c2c1Sc1ccc(F)cc1` gave an inhibition [14] of 0%, an inhibition [15] of 0% and an IC50 [1] of 2.7 µM.

For `CCc1[nH]c2nc(N)nc(O)c2c1Sc1c(C)cccc1C`, the inhibition [16] was 0% and the inhibition [17] was 0%.

Molecule `CCc1[nH]c2nc(N)nc(O)c2c1Sc1cccc2ccccc12` has an inhibition [18] of 15%.

`CCc1[nH]c2nc(N)nc(O)c2c1Sc1ccc2ccccc2c1` gave an IC50 [1] of 5.6 µM.

`CCc1[nH]c2nc(N)nc(O)c2c1Sc1cc(C(F)(F)F)cc(C(F)(F)F)c1` gave an inhibition [19] of 18% and an inhibition [20] of 0%.

With `CCc1[nH]c2nc(N)nc(O)c2c1Sc1ccc([N+](=O)[O-])cc1` the IC50 [21] was 24 µM, the inhibition [22] was 33% and the IC50 [1] was 0.24 µM.

Molecule `CCc1[nH]c2nc(N)nc(O)c2c1Sc1ccc(C(=O)N[C@@H](CCC(=O)O)C(=O)O)cc1` has an EC50 [2] of 7.05 µM, an EC50 [11] of 2.9 µM and an IC50 [12] of over 21 µM. For the same molecule, the EC50 [13] was 2.7 µM, the Activity [3] was 16% and the IC50 [21] was 0.54 µM. For the same molecule, the Activity [4] was 106%, the Activity [5] was 16% and the IC50 [1] was 0.09 µM. The Activity [23] was 75%, the Activity [6] was 95% and the Activity [7] was 106%. The Activity [8] was 105%, the Activity [9] was 18% and the IC50 [24] was 0.42 µM. For the same molecule, the EC50 [10] was 12.5 µM.

Molecule `CCc1[nH]c2nc(N)nc(O)c2c1Sc1ccc(OC)cc1` has an IC50 [1] of 16 µM and an inhibition [25] of 22%.

`CCc1[nH]c2nc(N)[nH]c(=O)c2c1Sc1c(C)cccc1C` gave an IC50 [1] of 26 µM.

With `CCc1[nH]c2nc(N)nc(O)c2c1Sc1cccc(Br)c1` the IC50 [1] was 1.1 µM and the inhibition [26] was 10%.

With `CCc1[nH]c2nc(N)[nH]c(=O)c2c1Sc1ccc(Cl)c(Cl)c1` the IC50 [1] was 0.23 µM.

`CCc1[nH]c2nc(N)nc(O)c2c1Sc1ccc(Cl)cc1` showed an inhibition [27] of 27% and an inhibition [28] of 25%.

`CCc1[nH]c2nc(N)nc(O)c2c1Sc1ccc(Br)cc1` showed an inhibition [29] of 15%, an IC50 [1] of 1 µM and an inhibition [30] of 14%.

Work on `CCc1[nH]c2nc(N)nc(O)c2c1Sc1cccc(Cl)c1` yielded an IC50 [1] of 2.6 µM, an inhibition [16] of 13% and an inhibition [17] of 0%.

In the case of `CCc1[nH]c2nc(N)nc(O)c2c1Sc1cccc(OC)c1`, the inhibition [31] is reported as 15% and the inhibition [25] is reported as 5%.

For `CCc1[nH]c2nc(N)nc(O)c2c1Sc1ccc(Cl)c(Cl)c1`, the inhibition [26] was 41%.

B1: Folylpolyglutamate synthase, mitochondrial (Homo sapiens), Q05932 (protein)
chain: MSRARSHLRAALFLAAASARGITTQVAARRGLSAWPVPQEPSMEYQDAVRMLNTLQTNAGYLEQVKRQRGDPQTQLEAMELYLARSGLQVEDLDRLNIIHVTGTKGKGSTCAFTECILRSYGLKTGFFSSPHLVQVRERIRINGQPISPELFTKYFWRLYHRLEETKDGSCVSMPPYFRFLTLMAFHVFLQEKVDLAVVEVGIGGAYDCTNIIRKPVVCGVSSLGIDHTSLLGDTVEKIAWQKGGIFKQGVPAFTVLQPEGPLAVLRDRAQQISCPLYLCPMLEALEEGGPPLTLGLEGEHQRSNAALALQLAHCWLQRQDRHGAGEPKASRPGLLWQLPLAPVFQPTSHMRLGLRNTEWPGRTQVLRRGPLTWYLDGAHTASSAQACVRWFRQALQGRERPSGGPEVRVLLFNATGDRDPAALLKLLQPCQFDYAVFCPNLTEVSSTGNADQQNFTVTLDQVLLRCLEHQQHWNHLDEEQASPDLWSAPSPEPGGSASLLLAPHPPHTCSASSLVFSCISHALQWISQGRDPIFQPPSPPKGLLTHPVAHSGASILREAAAIHVLVTGSLHLVGGVLKLLEPALSQ
For B1, the Km [32] was “Not Active”.
